Source: patent publication US11697648B2, “Fused pyrimidine pyridinone compounds as JAK inhibitors” (THERAVANCE BIOPHARMA R&D IP, LLC, priority 2019, dated 2023)

Assays:
JAK1 = JAK1 (Homo sapiens (Human), UniProt P23458); test: Biochemical JAK1 kinase assay (LanthaScreen)
How it was run: (§1)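 GST-JAK + GFP-STAT1 peptide, HEPES pH 7.5/MgCl2/EGTA/Brij-35 buffer; cpd preincubation 1 h RT; ATP start, 1 h RT; stop with 10 mM EDTA + 2 nM Tb-anti-pSTAT1; TR-FRET 520/495. 4-parameter IC50 → pKi (Cheng-Prusoff).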

[1] = system: IL-2 stimulated STAT5 phosphorylation in Tall-1 human T cell line (JAK3); test: Cellular JAK3 potency assay: inhibition of IL-2 stimulated pSTAT5 in Tall-1 T cells; assay type: cell-based
How it was run: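 Tall-1 cells, 45,000 per well, preincubated 1 hour with compound at 37 °C, then stimulated 30 minutes with IL-2 at 300 ng/ml final. pSTAT5 (Tyr694/699) in lysates quantified by AlphaLISA SureFire Ultra. pIC50 derived from inhibition curves, given as mean with SD.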

Tyk2 = Tyk2 (Homo sapiens (Human), UniProt P29597); test: Biochemical Tyk2 kinase assay (LanthaScreen)
Chain of Tyk2 (P29597 whole entry): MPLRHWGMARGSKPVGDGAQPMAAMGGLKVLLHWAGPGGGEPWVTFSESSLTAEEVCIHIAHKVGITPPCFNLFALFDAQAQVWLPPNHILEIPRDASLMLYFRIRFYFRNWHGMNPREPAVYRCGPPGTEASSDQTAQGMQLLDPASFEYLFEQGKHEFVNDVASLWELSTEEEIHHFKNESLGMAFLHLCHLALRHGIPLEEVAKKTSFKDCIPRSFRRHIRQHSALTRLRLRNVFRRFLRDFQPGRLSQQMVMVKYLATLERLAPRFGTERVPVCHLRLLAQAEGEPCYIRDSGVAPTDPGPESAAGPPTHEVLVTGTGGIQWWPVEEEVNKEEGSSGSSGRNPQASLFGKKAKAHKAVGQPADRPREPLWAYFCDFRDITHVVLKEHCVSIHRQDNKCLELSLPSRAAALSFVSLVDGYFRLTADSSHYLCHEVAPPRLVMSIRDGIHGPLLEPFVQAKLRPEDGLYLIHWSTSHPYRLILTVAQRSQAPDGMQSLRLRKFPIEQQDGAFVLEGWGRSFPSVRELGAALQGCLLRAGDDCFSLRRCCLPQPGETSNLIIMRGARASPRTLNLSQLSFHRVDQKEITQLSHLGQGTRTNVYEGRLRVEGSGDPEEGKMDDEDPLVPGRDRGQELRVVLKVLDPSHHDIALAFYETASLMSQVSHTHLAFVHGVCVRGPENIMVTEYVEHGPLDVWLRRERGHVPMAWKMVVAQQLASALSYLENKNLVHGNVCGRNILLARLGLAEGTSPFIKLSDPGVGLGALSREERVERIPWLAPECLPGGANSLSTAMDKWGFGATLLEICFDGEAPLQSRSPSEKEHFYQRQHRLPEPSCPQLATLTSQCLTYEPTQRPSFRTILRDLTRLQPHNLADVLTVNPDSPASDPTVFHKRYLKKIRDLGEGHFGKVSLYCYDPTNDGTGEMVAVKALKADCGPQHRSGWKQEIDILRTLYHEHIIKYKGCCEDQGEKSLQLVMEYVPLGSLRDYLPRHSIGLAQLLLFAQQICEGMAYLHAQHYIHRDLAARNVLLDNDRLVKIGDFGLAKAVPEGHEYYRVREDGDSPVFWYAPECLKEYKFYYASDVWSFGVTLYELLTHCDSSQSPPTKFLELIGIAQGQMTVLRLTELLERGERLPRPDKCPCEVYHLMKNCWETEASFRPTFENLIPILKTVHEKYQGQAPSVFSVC
Experimental: (§2) Assay 1: Biochemical JAK and Tyk2 Kinase Assays
(§3) A panel of four LanthaScreen JAK biochemical assays (JAK1, 2, 3 and Tyk2) were carried in a common kinase reaction buffer (50 mM HEPES, pH 7.5, 0.01% Brij-35, 10 mM MgCl2, and 1 mM EGTA). Recombinant GST-tagged JAK enzymes and a GFP-tagged STAT1 peptide substrate were obtained from Life Technologies.
(§4) Serially or discretely diluted compounds were pre-incubated with each of the four JAK enzymes and the substrate in white 384-well microplates (Corning) at ambient temperature for 1 h. ATP was subsequently added to initiate the kinase reactions in 10 μL total volume, with 1% DMSO. […] Kinase reactions were allowed to proceed for 1 hour at ambient temperature before a 10 μL preparation of EDTA (10 mM final concentration) and Tb-anti-pSTAT1 (pTyr701) antibody (Life Technologies, 2 nM final concentration) in TR-FRET dilution buffer (Life Technologies) was added. The plates were allowed to incubate at ambient temperature for 1 h before being read on the EnVision reader (Perkin Elmer). Emission ratio signals (520 nm/495 nm) were recorded and utilized to calculate the percent inhibition values based on DMSO and background controls.
(§5) For dose-response analysis, percent inhibition data were plotted vs. compound concentrations, and IC50 values were determined from a 4-parameter robust fit model with the Prism software (GraphPad Software). Results were expressed as pIC50 (negative logarithm of IC50) and subsequently converted to pKi (negative logarithm of dissociation constant, Ki) using the Cheng-Prusoff equation.

JAK3 = JAK3 (Homo sapiens (Human), UniProt P52333); test: Biochemical JAK3 kinase assay (LanthaScreen)
Chain of JAK3 (P52333 whole entry): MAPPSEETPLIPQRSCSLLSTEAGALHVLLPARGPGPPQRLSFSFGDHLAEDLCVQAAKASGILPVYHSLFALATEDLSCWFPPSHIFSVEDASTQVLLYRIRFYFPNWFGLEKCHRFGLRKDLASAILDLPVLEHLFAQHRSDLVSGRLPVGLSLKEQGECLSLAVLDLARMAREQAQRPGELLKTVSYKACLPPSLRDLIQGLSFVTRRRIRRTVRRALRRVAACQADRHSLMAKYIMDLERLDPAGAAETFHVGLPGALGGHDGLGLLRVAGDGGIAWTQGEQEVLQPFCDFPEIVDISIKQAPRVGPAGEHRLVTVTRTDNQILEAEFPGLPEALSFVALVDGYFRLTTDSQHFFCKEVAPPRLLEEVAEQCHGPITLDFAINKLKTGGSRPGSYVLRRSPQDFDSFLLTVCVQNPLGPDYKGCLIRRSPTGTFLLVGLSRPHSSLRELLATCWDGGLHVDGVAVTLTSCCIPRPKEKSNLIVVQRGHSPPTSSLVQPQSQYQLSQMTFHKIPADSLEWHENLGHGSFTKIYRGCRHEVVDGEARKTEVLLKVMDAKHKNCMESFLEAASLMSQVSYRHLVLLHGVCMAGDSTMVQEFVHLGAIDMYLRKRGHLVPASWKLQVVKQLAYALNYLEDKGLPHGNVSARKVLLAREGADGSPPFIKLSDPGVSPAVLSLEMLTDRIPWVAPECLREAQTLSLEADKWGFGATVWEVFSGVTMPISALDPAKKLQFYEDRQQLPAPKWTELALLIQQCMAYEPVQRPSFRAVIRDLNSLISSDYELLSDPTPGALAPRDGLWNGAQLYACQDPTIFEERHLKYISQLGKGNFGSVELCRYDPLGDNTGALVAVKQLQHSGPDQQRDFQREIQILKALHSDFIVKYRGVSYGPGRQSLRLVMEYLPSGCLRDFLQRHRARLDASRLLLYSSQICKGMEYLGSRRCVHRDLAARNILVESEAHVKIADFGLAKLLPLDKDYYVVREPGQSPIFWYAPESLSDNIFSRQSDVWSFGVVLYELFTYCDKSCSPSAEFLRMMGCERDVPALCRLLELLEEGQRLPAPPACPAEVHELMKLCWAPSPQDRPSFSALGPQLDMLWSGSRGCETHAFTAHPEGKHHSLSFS
How it was run: as §1

JAK2 = JAK2 (Homo sapiens (Human), UniProt O60674); test: Biochemical JAK2 kinase assay (LanthaScreen)
Chain of JAK2 (O60674 whole entry): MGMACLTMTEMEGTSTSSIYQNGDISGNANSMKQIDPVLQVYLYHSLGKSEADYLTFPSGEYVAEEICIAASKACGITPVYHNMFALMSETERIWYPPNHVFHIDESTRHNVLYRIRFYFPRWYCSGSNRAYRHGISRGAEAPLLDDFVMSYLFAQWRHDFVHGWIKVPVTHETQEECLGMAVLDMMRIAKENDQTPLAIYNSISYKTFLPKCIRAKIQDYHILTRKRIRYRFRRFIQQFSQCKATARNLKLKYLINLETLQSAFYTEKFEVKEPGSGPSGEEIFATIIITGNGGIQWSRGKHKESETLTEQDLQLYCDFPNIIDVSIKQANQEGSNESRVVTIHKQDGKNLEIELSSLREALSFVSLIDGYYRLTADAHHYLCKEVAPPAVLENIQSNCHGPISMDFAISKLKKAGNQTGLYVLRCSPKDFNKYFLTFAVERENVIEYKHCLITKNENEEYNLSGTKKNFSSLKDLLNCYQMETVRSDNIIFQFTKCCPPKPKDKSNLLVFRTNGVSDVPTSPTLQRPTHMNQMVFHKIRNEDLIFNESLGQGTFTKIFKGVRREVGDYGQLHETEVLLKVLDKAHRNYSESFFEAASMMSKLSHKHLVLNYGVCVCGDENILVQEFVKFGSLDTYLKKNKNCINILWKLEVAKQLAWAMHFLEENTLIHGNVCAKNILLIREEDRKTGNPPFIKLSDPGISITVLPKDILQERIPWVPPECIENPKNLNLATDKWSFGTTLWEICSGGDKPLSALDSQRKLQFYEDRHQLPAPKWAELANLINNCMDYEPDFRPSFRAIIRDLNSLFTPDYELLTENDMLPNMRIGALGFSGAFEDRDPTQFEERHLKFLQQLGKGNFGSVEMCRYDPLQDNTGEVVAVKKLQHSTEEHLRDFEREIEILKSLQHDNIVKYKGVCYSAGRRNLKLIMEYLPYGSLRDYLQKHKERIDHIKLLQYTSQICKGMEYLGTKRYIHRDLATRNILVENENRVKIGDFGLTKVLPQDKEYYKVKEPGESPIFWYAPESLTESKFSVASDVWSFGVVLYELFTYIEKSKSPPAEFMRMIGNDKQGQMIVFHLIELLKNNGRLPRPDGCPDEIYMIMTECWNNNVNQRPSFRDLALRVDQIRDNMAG
Experimental: as §2, §3, §4, §5

[2] = IL-2 stimulated pSTAT5, Tall-1 T cells
[3] = selectivity JAK3 over JAK1, difference of pKi
[4] = IL-2 stimulated pSTAT5 in Tall-1 T cells
[5] = selectivity, difference of pKi values

Chain of JAK1 (P23458 whole entry): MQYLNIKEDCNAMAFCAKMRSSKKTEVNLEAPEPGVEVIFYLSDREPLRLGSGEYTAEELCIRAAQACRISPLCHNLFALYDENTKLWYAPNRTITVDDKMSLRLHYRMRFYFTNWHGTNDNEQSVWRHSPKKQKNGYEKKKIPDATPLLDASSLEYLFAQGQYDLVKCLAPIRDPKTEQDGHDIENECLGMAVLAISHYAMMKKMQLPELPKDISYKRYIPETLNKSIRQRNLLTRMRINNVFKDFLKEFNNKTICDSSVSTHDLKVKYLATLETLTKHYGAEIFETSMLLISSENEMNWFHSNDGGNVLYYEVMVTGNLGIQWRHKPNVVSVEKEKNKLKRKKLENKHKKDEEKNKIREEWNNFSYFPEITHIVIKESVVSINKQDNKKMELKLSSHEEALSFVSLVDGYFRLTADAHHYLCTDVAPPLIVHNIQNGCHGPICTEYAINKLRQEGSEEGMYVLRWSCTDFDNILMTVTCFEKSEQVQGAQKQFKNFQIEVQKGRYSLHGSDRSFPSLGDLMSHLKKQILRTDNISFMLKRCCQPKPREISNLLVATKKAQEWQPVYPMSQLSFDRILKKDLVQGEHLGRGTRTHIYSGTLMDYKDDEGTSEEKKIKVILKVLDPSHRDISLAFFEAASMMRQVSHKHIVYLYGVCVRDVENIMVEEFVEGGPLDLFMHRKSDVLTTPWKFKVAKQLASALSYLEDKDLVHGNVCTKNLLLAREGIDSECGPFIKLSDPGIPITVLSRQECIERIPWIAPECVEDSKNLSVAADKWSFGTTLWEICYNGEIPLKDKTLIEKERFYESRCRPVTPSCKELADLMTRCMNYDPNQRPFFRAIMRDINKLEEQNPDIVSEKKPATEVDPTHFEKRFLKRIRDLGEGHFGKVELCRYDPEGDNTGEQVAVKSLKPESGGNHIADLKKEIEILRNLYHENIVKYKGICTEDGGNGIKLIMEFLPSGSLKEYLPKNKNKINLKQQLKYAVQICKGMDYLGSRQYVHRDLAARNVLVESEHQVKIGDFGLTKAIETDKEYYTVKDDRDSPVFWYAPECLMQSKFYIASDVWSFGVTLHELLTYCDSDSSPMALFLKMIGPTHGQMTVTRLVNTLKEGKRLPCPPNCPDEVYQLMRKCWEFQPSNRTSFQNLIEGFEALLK

Structure (SMILES) | JAK 1 (pKi) (JAK1) | Tall-1 (pIC50) [1, 2] | Tyk 2 (pKi) (Tyk2) | JAK 3 (pKi) (JAK3) | JAK3 (pKi)-JAK1 (pKi) (JAK3; [3]) | JAK 2 (pKi) (JAK2) | Tall-1 (pIC50) [1, 4] | JAK3 (pKi)-JAK1 (pKi) (JAK3; [5])
C=CC(=O)N1CC(CCn2c(=O)ccc3cnc(Nc4ccc(N5CCN(C(=O)C(C)(C)C)CC5)cc4)nc32)C1 [Example 104] | E (E represents a pKi value of 7 or below (Ki of 100 nM or above)) | A (A represents a pIC50 value≥7.5 (IC50≤32 nM)) | E (E represents a pKi value of 7 or below (Ki of 100 nM or above)) | A (A represents a pKi value≥10 (Ki≤0.1 nM)) | A (A represents a value of 3 or above) | E (E represents a pKi value of 7 or below (Ki of 100 nM or above)) | – | –
C=CC(=O)N1CC(CCn2c(=O)ccc3cnc(Nc4ccc(CN5CCN(C)CC5)cc4)nc32)C1 [Example 46] | E (E represents a pKi value of 7 or below (Ki of 100 nM or above)) | B (B represents a pC50 value between 6.7 (included) and 7.5 (IC50 between 200 nM and 32 nM)) | E (E represents a pKi value of 7 or below (Ki of 100 nM or above)) | B (B represents pKi value between 9 and 10 (Ki between 1 nM and 0.1 nM)) | A (A represents a value of 3 or above) | E (E represents a pKi value of 7 or below (Ki of 100 nM or above)) | – | –
C=CC(=O)N1CCN(CCn2c(=O)ccc3cnc(Nc4cnn(C)c4)nc32)C2(CC2)C1 [Example 149] | E (E represents a pKi value of 7 or below (Ki of 100 nM or above)) | C (C represents a pIC50 value between 6 and 6.7 (IC50 between 1 μM and 200 nM)) | E (E represents a pKi value of 7 or below (Ki of 100 nM or above)) | B (B represents pKi value between 9 and 10 (Ki between 1 nM and 0.1 nM)) | A (A represents a value of 3 or above) | E (E represents a pKi value of 7 or below (Ki of 100 nM or above)) | – | –
C=CC(=O)N1CC(CCn2c(=O)ccc3cnc(Nc4cnn(Cc5ccccc5)c4)nc32)C1 [Example 239] | E (E represents a pKi value of 7 or below (Ki of 100 nM or above)) | – | E (E represents a pKi value of 7 or below (Ki of 100 nM or above)) | B (B represents pKi value between 9 and 10 (Ki between 1 nM and 0.1 nM)) | – | E (E represents a pKi value of 7 or below (Ki of 100 nM or above)) | B (B represents a pC50 value between 6.7 (included) and 7.5 (IC50 between 200 nM and 32 nM)) | A (A represents a value of 3 or above)
C=CC(=O)N1CC(CCn2c(=O)ccc3cnc(Nc4ccc5[nH]cnc5c4)nc32)C1 [Example 84] | E (E represents a pKi value of 7 or below (Ki of 100 nM or above)) | C (C represents a pIC50 value between 6 and 6.7 (IC50 between 1 μM and 200 nM)) | E (E represents a pKi value of 7 or below (Ki of 100 nM or above)) | B (B represents pKi value between 9 and 10 (Ki between 1 nM and 0.1 nM)) | A (A represents a value of 3 or above) | E (E represents a pKi value of 7 or below (Ki of 100 nM or above)) | – | –
C=CC(=O)N1CCN(CCn2c(=O)ccc3cnc(Nc4cnn(CCOC(C)C)c4)nc32)[C@@H](C)C1 [Example 230] | E (E represents a pKi value of 7 or below (Ki of 100 nM or above)) | B (B represents a pC50 value between 6.7 (included) and 7.5 (IC50 between 200 nM and 32 nM)) | E (E represents a pKi value of 7 or below (Ki of 100 nM or above)) | B (B represents pKi value between 9 and 10 (Ki between 1 nM and 0.1 nM)) | A (A represents a value of 3 or above) | E (E represents a pKi value of 7 or below (Ki of 100 nM or above)) | – | –
C=CC(=O)N1CCN(CCn2c(=O)ccc3cnc(Nc4ccc(N5CCN(S(=O)(=O)CCOC)CC5)cc4)nc32)CC1 [Example 147] | E (E represents a pKi value of 7 or below (Ki of 100 nM or above)) | C (C represents a pIC50 value between 6 and 6.7 (IC50 between 1 μM and 200 nM)) | E (E represents a pKi value of 7 or below (Ki of 100 nM or above)) | B (B represents pKi value between 9 and 10 (Ki between 1 nM and 0.1 nM)) | A (A represents a value of 3 or above) | E (E represents a pKi value of 7 or below (Ki of 100 nM or above)) | – | –
C=CC(=O)N1CCN(CCn2c(=O)ccc3cnc(Nc4ccc(N5CCN(C)[C@@H](C)C5)nc4)nc32)[C@@H](C)C1 [Example 252] | E (E represents a pKi value of 7 or below (Ki of 100 nM or above)) | – | E (E represents a pKi value of 7 or below (Ki of 100 nM or above)) | B (B represents pKi value between 9 and 10 (Ki between 1 nM and 0.1 nM)) | – | E (E represents a pKi value of 7 or below (Ki of 100 nM or above)) | B (B represents a pC50 value between 6.7 (included) and 7.5 (IC50 between 200 nM and 32 nM)) | A (A represents a value of 3 or above)
C=CC(=O)N1CC(CCn2c(=O)ccc3cnc(Nc4ccn(C)n4)nc32)C1 [Example 226] | E (E represents a pKi value of 7 or below (Ki of 100 nM or above)) | C (C represents a pIC50 value between 6 and 6.7 (IC50 between 1 μM and 200 nM)) | E (E represents a pKi value of 7 or below (Ki of 100 nM or above)) | B (B represents pKi value between 9 and 10 (Ki between 1 nM and 0.1 nM)) | A (A represents a value of 3 or above) | E (E represents a pKi value of 7 or below (Ki of 100 nM or above)) | – | –
C=CC(=O)N1CC(CCn2c(=O)ccc3cnc(Nc4ccc(N5CCN(CCC6CCCCC6)CC5)cc4)nc32)C1 [Example 116] | E (E represents a pKi value of 7 or below (Ki of 100 nM or above)) | B (B represents a pC50 value between 6.7 (included) and 7.5 (IC50 between 200 nM and 32 nM)) | E (E represents a pKi value of 7 or below (Ki of 100 nM or above)) | B (B represents pKi value between 9 and 10 (Ki between 1 nM and 0.1 nM)) | B (B represents a value of 2.5 to 3) | E (E represents a pKi value of 7 or below (Ki of 100 nM or above)) | – | –
C=CC(=O)N1CC(CCn2c(=O)ccc3cnc(Nc4ccc(N(C)CCO)cc4)nc32)C1 [Example 224] | E (E represents a pKi value of 7 or below (Ki of 100 nM or above)) | B (B represents a pC50 value between 6.7 (included) and 7.5 (IC50 between 200 nM and 32 nM)) | E (E represents a pKi value of 7 or below (Ki of 100 nM or above)) | B (B represents pKi value between 9 and 10 (Ki between 1 nM and 0.1 nM)) | A (A represents a value of 3 or above) | E (E represents a pKi value of 7 or below (Ki of 100 nM or above)) | – | –
C=CC(=O)N1CC(CCn2c(=O)ccc3cnc(Nc4cccc(C(C)N5CCN(C(=O)N(C)C)CC5)c4)nc32)C1 (stereo not drawn) [Example 215] | E (E represents a pKi value of 7 or below (Ki of 100 nM or above)) | B (B represents a pC50 value between 6.7 (included) and 7.5 (IC50 between 200 nM and 32 nM)) | E (E represents a pKi value of 7 or below (Ki of 100 nM or above)) | B (B represents pKi value between 9 and 10 (Ki between 1 nM and 0.1 nM)) | A (A represents a value of 3 or above) | E (E represents a pKi value of 7 or below (Ki of 100 nM or above)) | – | –
C=CC(=O)N1CC(CCn2c(=O)ccc3cnc(Nc4ccc(N5CCN(CC(F)(F)F)CC5)cc4)nc32)C1 [Example 119] | E (E represents a pKi value of 7 or below (Ki of 100 nM or above)) | B (B represents a pC50 value between 6.7 (included) and 7.5 (IC50 between 200 nM and 32 nM)) | E (E represents a pKi value of 7 or below (Ki of 100 nM or above)) | A (A represents a pKi value≥10 (Ki≤0.1 nM)) | A (A represents a value of 3 or above) | E (E represents a pKi value of 7 or below (Ki of 100 nM or above)) | – | –
